Test system: Plasmodium berghei
Assay: Luciferase/luciferin-expressing antifolate-resistant parasites were used to infect a culture of HepG2 cells that were pre-incubated with compounds. Infected hepatocytes emit light due to the luciferase reaction. Assay results are presented as the percent inhibition of light emission compared to control. […]
Assay type: functional
Conditions: sporozoite; for IC50: read-out: LUCIFERASE INFECTION ASSAY - IC50; for IC90: read-out: LUCIFERASE INFECTION ASSAY - IC90

SMILES	IC50	IC90
NC(Cc1ccc(C(F)(F)F)cc1)c1csc(Nc2nncc3ccccc23)n1 (stereo not drawn)	> 7.94 µM	> 7.94 µM
CC(=O)Nc1ccc(-c2ccnc3c2CC(C(=O)Nc2cccc(C(F)(F)F)c2)O3)cc1 (stereo not drawn)	4.23 µM	> 7.48 µM
NC(Cc1ccc(F)cc1)c1csc(Nc2nncc3ccccc23)n1 (stereo not drawn)	> 9.03 µM	> 9.03 µM
CC(=O)Nc1cc(-c2ccc(C(=O)NC3CC3)cc2)cn2c(-c3ccc(F)c(Cl)c3)cnc12	> 7.13 µM	> 7.13 µM
NC(Cc1ccc(F)cc1)c1csc(Nc2cc(NCc3ccco3)ncn2)n1 (stereo not drawn)	> 8.04 µM	> 8.04 µM
Cc1cc(C)nc(Nc2nc(C(N)Cc3ccc(C(F)(F)F)cc3)cs2)n1 (stereo not drawn)	> 8.39 µM	> 8.39 µM
Cc1cnc(C)c(Nc2nc(C(N)Cc3ccc(C(F)(F)F)cc3)cs2)n1 (stereo not drawn)	> 8.39 µM	> 8.39 µM
CN(C)CCNC(=O)c1cccc(-c2cnc3c(NC=O)cc(-c4cccc(C(F)(F)F)c4)cn23)c1	> 6.66 µM	> 6.66 µM
CCSc1ccc(-c2cc(NC=O)c3ncc(-c4cccc(C(=O)NCCN(C)C)c4)n3c2)cc1	> 6.77 µM	> 6.77 µM
CCOCCC(=O)Nc1ccc2c(c1)c(=O)n(C)n2Cc1cccc(C(F)(F)F)c1	> 7.83 µM	> 7.83 µM
CCOC(=O)C1(C)CCN1C(=O)c1cc(OC)c(OC)c(OC)c1 (stereo not drawn)	> 9.78 µM	> 9.78 µM
CCOC(=O)C1(C)CCCN1C(=O)c1cccs1 (stereo not drawn)	> 12.3 µM	> 12.3 µM
CCCS(=O)(=O)NC(=O)C1(C)CCCN(C(=O)c2ccccc2OC)C1 (stereo not drawn)	> 8.63 µM	> 8.63 µM
CCCNC(=O)C1(C)CCCN(C(=O)c2cccc(OC(C)=O)c2C)C1 (stereo not drawn)	> 9.16 µM	> 9.16 µM
COc1ccc(-c2cnc3sc(NCc4ccncc4)nn23)cc1OC	> 8.98 µM	> 8.98 µM
Cn1cccc1C(=O)N1CC2ON=C(c3ccc(F)cc3)C2C1 (stereo not drawn)	> 10 µM	> 10 µM
Cc1ccccc1CN1CCN2C=C(C(=O)Nc3ccc(OCc4ccccc4)cc3)OC2=NC1=O	> 10 µM	> 10 µM
OCc1ccc(-c2cnc3ccc(-c4ccoc4)nn23)cc1	4.97 µM	> 10 µM
CC(C)(C(=O)NCc1ccccc1Br)n1cc(-c2ccc(OCCN3CCCC3)cc2)cn1	> 10 µM	> 10 µM
Cc1ccccc1CN1CCN2C(C(=O)NCc3cccc(Cl)c3)=COC2=NC1=O	> 10 µM	> 10 µM
CN(C)C(=O)c1cccc(-c2cnc3c(NC=O)cc(-c4ccsc4)cn23)c1	> 8.45 µM	> 8.45 µM

SMILES	IC50	IC90
COc1cccc(Cn2c3ccc(NC(=O)CC4CCCCC4)cc3c(=O)n2C)c1	> 8.1 µM	> 8.1 µM
CC(=O)Oc1cccc(C(=O)N2CC3ON=C(c4c(F)cccc4Cl)C3C2)c1C (stereo not drawn)	> 10 µM	> 10 µM
CN(C)c1ccc(-c2nnc3ccccn23)cc1	6.56 µM	> 13.8 µM
CCCCOc1ccc(Nc2nc(C(N)COCc3ccccc3)cs2)nn1 (stereo not drawn)	> 8.26 µM	> 8.26 µM
Cn1c(=O)c2cc(NC(=O)CC(C)(C)C)ccc2n1Cc1ccccc1	> 9.39 µM	> 9.39 µM
OCc1cccc(-c2cnc3ccc(-c4cccc(F)c4)nn23)c1	3.42 µM	4.21 µM
CCOC(=O)C1CCCN(C(=O)Cc2cccc3ccccc23)CC1 (stereo not drawn)	> 9.72 µM	> 9.72 µM
N#Cc1ccccc1S(=O)(=O)NC(=O)Cn1cc(-c2cccc(F)c2)nn1	> 8.56 µM	> 8.56 µM
COc1cc(-c2cnc3sc(NCC4CCOCC4)nn23)ccc1O	> 9.16 µM	> 9.16 µM
COc1cc(-c2cnc3sc(NCc4cccs4)nn23)ccc1O	> 9.21 µM	> 9.21 µM
COc1cc(NC(=O)C(C)(C)n2cc(-c3cccnc3)cn2)cc(OC)c1	> 10 µM	> 10 µM
Cc1nc(C(=O)N2CCC(C)(C(=O)NS(=O)(=O)C3CC3)C2)c(C)o1 (stereo not drawn)	> 9.28 µM	> 9.28 µM
CCCCOc1ccc(Nc2nc(C(N)CCc3ccccc3)cs2)nn1 (stereo not drawn)	> 8.6 µM	> 8.6 µM
CCC(=O)N1CCCC(C(=O)NCc2ccc(C(C)C)cc2)CC1 (stereo not drawn)	> 9.99 µM	> 9.99 µM
COc1ccc(OC)c(S(=O)(=O)N2[C@@H]3CC[C@@H](C3)[C@H]2c2nc3cccc(OCc4ccc(F)cc4)c3[nH]2)c1	> 10 µM	> 10 µM
c1csc(-c2cnc3sc(NCc4ccncc4)nn23)c1	> 10.5 µM	> 10.5 µM
COCC(=O)N1CCCC(C)(C(=O)NCc2cnc(C)cn2)C1 (stereo not drawn)	> 10.3 µM	> 10.3 µM
COc1cc(-c2cnc3ccc(Cc4ccc(F)cc4)nn23)cc(OC)c1OC	6.26 µM	> 10 µM
COc1cccc(CN2CCN3C=C(C(=O)Nc4ccc(Oc5ccccc5)cc4)OC3=NC2=O)c1	> 10 µM	> 10 µM
c1ccc(Oc2cccc(-c3ccc4ncc(-c5ccoc5)n4n3)c2)cc1	> 10 µM	> 10 µM
Nc1cccc(-c2ccc3ncc(-c4cccc(C(F)(F)F)c4)n3n2)c1	1.48 µM	2.09 µM

SMILES	IC50	IC90
O=C(Nc1cccnc1)C1=COC2=NC(=O)N(Cc3ccccc3C(F)(F)F)CCN12	> 10 µM	> 10 µM
CS(=O)(=O)c1ccc(-c2ccc3ncc(-c4cccc(C(F)(F)F)c4)n3n2)cc1	2.78 µM	> 10 µM
CCCNC(=O)C1(C)CCN(CCCC(=O)c2ccc(C)c(C)c2)C1 (stereo not drawn)	> 9.58 µM	> 9.58 µM
CCNC(=O)C1CCCN(Cc2noc(-c3ccccc3OC)n2)CC1 (stereo not drawn)	> 9.21 µM	> 9.21 µM
CCNC(=O)C1CCCN(CCOc2ccc(Cl)cc2)CC1 (stereo not drawn)	> 10.2 µM	> 10.2 µM
FC(F)(F)c1cccc(-c2ccc3ncc(-c4ccc5c(c4)OCO5)n3n2)c1	> 10 µM	> 10 µM
Cc1ccccc1CN1CCN2C=C(C(=O)Nc3ccc(Oc4ccccc4)cc3)OC2=NC1=O	> 10 µM	> 10 µM
CC(=O)c1cccc(-c2ccc3ncc(-c4ccoc4)n3n2)c1	> 10 µM	> 10 µM
COc1cc(Nc2cc3c(cn2)cc(-c2cnn(C)c2)n3Cc2ccccc2)cc(OC)c1OC	3.03 µM	3.72 µM
CC(C)c1ccc(NC(=O)C2=CN3CCN(Cc4ccc(F)cc4)C(=O)N=C3O2)cc1	> 10 µM	> 10 µM
COc1ccccc1-c1ccc2ncc(-c3ccc(CO)cc3)n2n1	7.5 µM	> 10 µM
CNC(=O)c1cnc(N2CCN(Cc3ccccc3C#N)C2=O)s1	> 10 µM	> 10 µM
COc1cc(CNc2nccc3nc(-c4ccccc4Cl)[nH]c23)cc(OC)c1OC	8.57 µM	> 10 µM
NS(=O)(=O)c1ccc(CCNc2nn3c(-c4ccc(Cl)cc4)cnc3s2)cc1	> 7.6 µM	> 7.6 µM
OCc1ccc(-c2cnc3ccc(-c4cccc(C(F)(F)F)c4)nn23)cc1	> 10 µM	> 10 µM
CCNC(=O)C1(C)CCCN1C(=O)c1ccc(OC)cc1 (stereo not drawn)	> 11.4 µM	> 11.4 µM
CC(C)=CCn1c2ccc(NC(=O)OCCF)cc2c(=O)n1C	> 10.3 µM	> 10.3 µM
CC(=O)Nc1cccc(-c2ccc3ncc(-c4ccc(CO)cc4)n3n2)c1	2.73 µM	8.06 µM
CC(C)(C(=O)Nc1ccon1)n1cc(-c2ccc(OCCN3CCCC3)cc2)cn1	> 10 µM	> 10 µM
O=C(NCc1cccc(Cl)c1)C1=COC2=NC(=O)N(Cc3cccc(Cl)c3)CCN12	> 10 µM	> 10 µM
COc1ccc(-c2nnc(Nc3ccc4c(c3)c(=O)n(C)n4CC=C(C)C)[nH]2)cc1	> 8.16 µM	> 8.16 µM

SMILES	IC50	IC90
COCCNC(=O)Cn1nnc(C)c1COc1ccc2ccccc2c1	> 9.31 µM	> 9.31 µM
COc1ccc(-c2cnc3c(NC(C)=O)cc(-c4ccc5[nH]ccc5c4)cn23)cc1OC	> 7.74 µM	> 7.74 µM
FC(F)(F)c1cccc(-c2cnc3ccc(-c4cccs4)nn23)c1	> 10 µM	> 10 µM
Cc1occc1NC(=O)N1[C@@H]2CC[C@@H](C2)[C@H]1c1nc2cccc(OCc3ccc(F)cc3)c2[nH]1	> 10 µM	> 10 µM
COc1cc(Nc2nccc3nc(-c4ccc5c(c4)OCCO5)[nH]c23)cc(OC)c1OC	0.494 µM	1.67 µM
CC(C)(C)c1ccc(OCC(=O)Nc2cnn(C(C)(C)C(=O)NCc3ccccc3)c2)cc1	> 10 µM	> 10 µM
O=C(Nc1ccc(Oc2ccccc2)cc1)C1=CN2CCN(Cc3ccccc3)C(=O)N=C2O1	> 10 µM	> 10 µM
c1ccc2cc(-c3cnc4sc(NCc5ccncc5)nn34)ccc2c1	> 9.23 µM	> 9.23 µM
CCCNC(=O)C1(C)CCN(Cc2ccc3ccccc3n2)C1 (stereo not drawn)	> 10.6 µM	> 10.6 µM
CS(=O)(=O)c1ccc(-c2cnc3ccc(Cc4ccc(F)cc4)nn23)cc1	2.9 µM	3.4 µM
FC(F)(F)Oc1cccc(-c2ccc3ncc(-c4ccoc4)n3n2)c1	> 10 µM	> 10 µM
N#Cc1cccc(CN2CCN3C(C(=O)Nc4ccc(-n5cccc5)cc4)=COC3=NC2=O)c1	> 10 µM	> 10 µM
CC(C)N1CCC(C)(C(=O)Nc2ccc3c(c2)C(=O)N(C)C3=O)C1 (stereo not drawn)	> 10 µM	> 10 µM
Cn1cc(-c2cc3cnc(Nc4ccc(C(N)=O)cc4)cc3n2Cc2ccccc2)cn1	> 10 µM	> 10 µM
COc1cc(NC(=O)C(C)(C)n2cc(-c3ccc(OCCN4CCCC4)cc3)cn2)cc(OC)c1	> 10 µM	> 10 µM
CC(C)(C(=O)NCCc1ccccc1)n1cc(-c2ccc3c(c2)OCCO3)cn1	> 10 µM	> 10 µM
CC(C)CNc1nn2c(-c3ccc(O)cc3)cnc2s1	> 11.4 µM	> 11.4 µM
CCC(=O)N1CCC1(C)C(=O)NCc1ccc2c(c1)OCO2 (stereo not drawn)	> 10.8 µM	> 10.8 µM
COCCNC(=O)C1(C)CCCN(C(=O)c2ccc(OC)cc2OC)C1 (stereo not drawn)	> 9.06 µM	> 9.06 µM
CCOC(=O)C1(C)CCCCN1C(=O)c1ccc(C(=O)OC)cc1 (stereo not drawn)	> 9.9 µM	> 9.9 µM
CS(=O)(=O)c1ccc(CN2CCN3C(C(=O)Nc4cccc(C(F)(F)F)c4)=COC3=NC2=O)cc1	> 10 µM	> 10 µM
